For one experiment, the system named is SK-LMS-1. Kind of experiment: Proliferation panel assay: SK-LMS-1. Type of experiment: cell-based. The following applies: Homo sapiens, 120 h; SK-LMS-1 (Sarcoma); 5 days, Cell Titer Glo; read-out: Cellular Proliferation EC50. (In general: ATP-based viability assays read luminescence as a measure of living cells.)
A further experiment relates to MDAMB231. Nature of the experiment: Proliferation panel assay: MDAMB231. Type of experiment: cell-based. The conditions noted are these: Homo sapiens, MDA-MB-231, 120 h; MDAMB231 (Breast); 5 days, Cell Titer Glo; read-out: Cellular Proliferation EC50.
Another experiment has as its system EJ-1. Nature of the experiment: Proliferation panel assay: EJ-1. It counts as cell-based. The following applies: EJ1, 120 h; EJ-1 (Bladder); 5 days, Cell Titer Glo; read-out: Cellular Proliferation EC50.
A further experiment has as its system GEO. Nature of the experiment: Proliferation panel assay: GEO. Type of experiment: cell-based. The following applies: 120 h; GEO (Colon); 5 days, Cell Titer Glo; read-out: Cellular Proliferation EC50.
Another experiment has as its system NCI-H929. Kind of experiment: Proliferation panel assay: NCI-H929. Type of experiment: cell-based. The following applies: Homo sapiens, 120 h; NCI-H929 (Multiple Myeloma); 5 days, Cell Titer Glo; read-out: Cellular Proliferation EC50.
In the next experiment the test system is FaDu. Kind of experiment: Proliferation panel assay: FaDu. Type of experiment: cell-based. The following applies: Homo sapiens, 120 h; FaDu (Head & Neck); 5 days, Cell Titer Glo; read-out: Cellular Proliferation EC50.
Another experiment has as its system D54MG. Nature of the experiment: Proliferation panel assay: D54MG. It counts as cell-based. The conditions noted are these: 120 h; D54MG (Glioblastoma); 5 days, Cell Titer Glo; read-out: Cellular Proliferation EC50.
The next experiment has as its system H460. Kind of experiment: Proliferation panel assay: H460. It counts as cell-based. The conditions noted are these: Homo sapiens, NCI-H460, 120 h; H460 (NSCLC); 5 days, Cell Titer Glo; read-out: Cellular Proliferation EC50.
In the next experiment the test system is Raji. Kind of experiment: Proliferation panel assay: Raji. It counts as cell-based. The conditions noted are these: Homo sapiens, 120 h; Raji (Burkitt lymphoma); 5 days, Cell Titer Glo; read-out: Cellular Proliferation EC50.
The test system of experiment [1] is breast cancer cell line MX-1. Nature of the experiment: MX-1 cell line proliferation assay (3-day). It counts as cell-based. The following applies: Homo sapiens, MX1; MX-1 cells, 72 h incubation, Cell Titer Glo; read-out: Cellular proliferation: EC50. Put shortly:
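EC50 derived by sigmoidal fitting of Cell Titer Glo signal relative to DMSO controls. Compound, 3 μM down to 0.0001 μM final in 3-fold steps, was added to adhered MX-1 cells (5000/well, RPMI + 10% FBS) for a 3-day incubation at 37° C.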

Another experiment concerns SKM1. Nature of the experiment: Proliferation panel assay: SKM1. Type of experiment: cell-based. The conditions noted are these: Homo sapiens, SKM-1, 120 h; SKM1 (AML); 5 days, Cell Titer Glo; read-out: Cellular Proliferation EC50.
Experiment [2] concerns the target T1, second (BD2: amino acids E352-E168) bromodomain of BRD4 (Homo sapiens, UniProt O60885).
T1 construct: protocol
Kind of experiment: TR-FRET bromodomain binding assay, BRD4 BD2. The following applies: TR-FRET assay protocol (A-G, compound concentration range); Ki calculated from IC50, probe Kd and probe concentration; read-out: TR-FRET Binding Ki: BRD4 (BDII_E352-M457). Put shortly: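 TR-FRET probe competition, His-tagged bromodomain, Alexa647-labeled BET-inhibitor tracer. Ki from IC50 via probe Kd.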

For another experiment, the system named is H1299. Nature of the experiment: Proliferation panel assay: H1299. It counts as cell-based. The conditions noted are these: Homo sapiens, NCI-H1299, 120 h; H1299 (NSCLC); 5 days, Cell Titer Glo; read-out: Cellular Proliferation EC50.
In the next experiment the test system is RPMI-8226. Nature of the experiment: Proliferation panel assay: RPMI-8226. The following applies: Homo sapiens, 120 h; RPMI-8226 (Multiple Myeloma); 5 days, Cell Titer Glo; read-out: Cellular Proliferation EC50. It counts as cell-based.
For the next experiment, the system named is BxPC3FP5. Nature of the experiment: Proliferation panel assay: BxPC3FP5. The following applies: 120 h; BxPC3FP5 (Pancreas); 5 days, Cell Titer Glo; read-out: Cellular Proliferation EC50. It counts as cell-based.
Another experiment concerns HepG2. Kind of experiment: Proliferation panel assay: HepG2. It counts as cell-based. The following applies: Homo sapiens, 120 h; HepG2 (Hepatocellular); 5 days, Cell Titer Glo; read-out: Cellular Proliferation EC50.
For a further experiment, the system named is PC3M. Nature of the experiment: Proliferation panel assay: PC3M. The following applies: Homo sapiens, PC-3M, 120 h; PC3M (Prostate); 5 days, Cell Titer Glo; read-out: Cellular Proliferation EC50. It counts as cell-based.
The next experiment concerns MDAMB453. Kind of experiment: Proliferation panel assay: MDAMB453. Type of experiment: cell-based. The following applies: Homo sapiens, MDA-MB-453, 120 h; MDAMB453 (Breast); 5 days, Cell Titer Glo; read-out: Cellular Proliferation EC50.
A further experiment deals with A-375. Nature of the experiment: Proliferation panel assay: A-375. It counts as cell-based. The following applies: Homo sapiens, 120 h; A-375 (Melanoma); 5 days, Cell Titer Glo; read-out: Cellular Proliferation EC50.

pEC50, pKi: −log10 of the molar value.

Among the data in patent US9561231B2 (AbbVie Inc., priority 2012, dated 2017) are EC50 and Ki values, retold here.

By pKi is commonly meant −log10 of the Ki, conventionally taken in molar units.

Turning to `Cn1cc(-c2cc(NS(C)(=O)=O)ccc2Oc2ccccc2)ccc1=O` [Example 224, N-[3-(1-methyl-6-oxo-1,6-dihydropyridin-3-yl)-4-phenoxyphenyl]methanesulfonamide], the pEC50 is 6.35 with SK-LMS-1; 6.14 in the experiment on MDAMB231; 5.80 in the experiment with EJ-1; 6.26 in the experiment on GEO; 6.96 with NCI-H929; 6.55 in the experiment on FaDu. Also, the pEC50 is 6.37 with D54MG; 6.96 in the experiment on H460; 6.89 in the experiment with Raji; 6.68 in experiment [1]; 6.94 in the experiment with SKM1; 6.12 in the experiment with H1299. The pEC50 with RPMI-8226 was 6.55; in the experiment with BxPC3FP5, 6.64; in the experiment with HepG2, 6.31; in the experiment on PC3M it was 5.84; in the experiment with MDAMB453 it was 6.49; in the experiment with A-375 it was 6.37. In addition, the pKi in experiment [2] is 6.95.

With `Cc1cc(-c2cc(NS(C)(=O)=O)ccc2Oc2ccccc2)c[nH]c1=O` [Example 261, N-[3-(5-methyl-6-oxo-1,6-dihydropyridin-3-yl)-4-phenoxyphenyl]methanesulfonamide], the pEC50 in the experiment on SK-LMS-1 is 6.46; with MDAMB231 it was 6.34; in the experiment with EJ-1, 5.94; with GEO, 6.17; with NCI-H929 it was 7.01; in the experiment with FaDu, 6.57. The pEC50 in the experiment on D54MG is 6.47; with H460 it was 6.51; in the experiment on Raji it was 6.87; in experiment [1] it was 6.41; in the experiment on SKM1, 6.87; in the experiment with H1299 it was 6.13. Besides, the pEC50 was 6.52 in the experiment on RPMI-8226; 6.64 in the experiment with BxPC3FP5; 6.29 in the experiment on HepG2; 5.85 in the experiment on PC3M; 6.47 in the experiment with MDAMB453; 6.30 in the experiment on A-375. The pKi in experiment [2] was 7.18.
